From patent publication US4350699A, “Pyridylalkoxysulfinyl derivatives of carbamate esters” (priority 1981, dated 1982) come the findings set out here.

Molecules are shown by their SMILES.

One series has as its system tobacco cutworms. Put plainly: test against tobacco cutworms (3rd instar larvae), cabbage leaf dip, mortality counted 72 hours after the treatment. In kind it is in vivo. Conditions: for mortality at 100 ppm / mortality at 500 ppm: foliar, leaf dip, 72 hours. On the procedure:
In the test against tobacco cutworms, aqueous solutions containing each toxicant at 100 and 500 ppm and an emulsifying agent, Shingramin, at 0.03% were prepared. The composition of Shingramin is understood to consist of 20% of polyoxyethylene dodecyl ether and polyoxyethylene alkylaryl ether, 12% ligninsulfonates and 68% inert solvents, by weight. A cabbage leaf was dipped into each of these solutions for 30 seconds, and put in a paper cup of 8 cm diameter. Ten tobacco cutworms (3rd instar larvae) were released onto the leaf. Two leaves were used for each dilution. Mortality of the insects was counted 72 hours after the treatment.

The test system of a further series is Mice. In words: in vivo. Particulars: compared with parent carbamate (methomyl or MIP). As for the experimental part:
(§1) Representative compounds of the pyridylalkoxysulfinyl derivatives of carbamate esters of the invention were tested for insecticidal activity against house flies and tobacco cutworms, and for mammalian toxicity against mice.
(§2) Mammalian toxicity was determined against Swiss white mice. The test compound was applied orally using propylene glycol as the carrier.

Another series is described as follows: in vivo. Particulars: mouse, in vivo, po. As for the experimental part:
as §1, §2

The next series concerns House Flies. Conditions: for toxicity against house flies (in words): judged from LD50 of Table I; for House Flies LD50: topical on the notum, 1 μl acetone solution, 24 hours. As for the experimental part: as §1
In the test for houseflies, stock 1% concentrated solutions of each of the test compounds and the commercially related carbamate ester insecticide, methomyl, were made in acetone, and such solutions were diluted with acetone to a concentration of 0.001-0.1%. House flies were treated topically on the notum by 1 μl of each of the diluted acetone solutions and percent mortality was counted 24 hours after application.

In the series on tobacco cutworms, `CSC(C)=NOC(=O)N(C)S(=O)OCc1cccnc1` (stereo not shown) [III, S-methyl N-[N'-methyl-N'-(3-pyridylmethoxy)sulfinylcarbamoyloxy]-thioacetimidate] displayed a mortality at 100 ppm of 85% and a mortality at 500 ppm of 100%. Besides, the “mammalian toxicity (in words)” value with Mice is given as “low”. Besides, in “in vivo”, the LD50 came to 96 mg/kg. For the same molecule, in the series on House Flies, the “toxicity against house flies (in words)” value was “good toxicity” and the “House Flies LD50” value stood at 5.8 µg/g.
Consider `CSC(C)=NOC(=O)N(C)S(=O)OCc1ccccn1` (stereo not shown) [I, S-methyl N-[N'-methyl-N'-(2-pyridylmethoxy)-sulfinylcarbamoyloxy] thioacetimidate], for which the “potency for tobacco cutworms (in words)” value with tobacco cutworms (compared with methomyl) is recorded as “not as potent as methomyl”. In the series with tobacco cutworms, this molecule showed a mortality at 100 ppm of 5% and a mortality at 500 ppm of 65%. In the series with Mice, the “mammalian toxicity (in words)” value is listed as “low”. In addition, in the series “in vivo”, the median lethal dose (LD50) came to 85 mg/kg. In the series with House Flies, the “toxicity against house flies (in words)” value is recorded as “good toxicity” and the “House Flies LD50” value was found to be 7.0 µg/g.
In the case of `CC(C)c1cccc(OC(=O)N(C)S(=O)OCc2ccccn2)c1` (stereo not shown) [IX, 3-Isopropylphenyl N-(2-pyridylmethoxysulfinyl)-N-methylcarbamate], the “mammalian toxicity (in words)” value with Mice is on record as “substantially lower mammalian toxicity”. In “in vivo”, the LD50 is 105 mg/kg. In the series on House Flies, the “toxicity against house flies (in words)” value is recorded as “good toxicity” and the “House Flies LD50” value was 111.5 µg/g.
For the molecule `CNC(=O)Oc1cccc(C(C)C)c1` [MIP, reference compound], in the series on Mice, the “mammalian toxicity (in words)” value is “much higher mammalian toxicity”.
For `CNC(=O)ON=C(C)SC` [methomyl, reference compound], in the series on tobacco cutworms, the mortality at 100 ppm was 100% and the mortality at 500 ppm was found to be 100%. Moreover, the “mammalian toxicity (in words)” value in the series on Mice was “much higher toxicity”. Besides, in the series on House Flies, the “House Flies LD50” value worked out at 3.7 µg/g.

In general, mortality refers to the percentage killed. A lower mortality goes with more survivors. For orientation: LD50 means the dose at which mortality reaches 50%.
